Assay results from ChEMBL document CHEMBL5291721, “A preclinical secondary pharmacology resource illuminates target-adverse drug reaction associations of marketed drugs” (Nat Commun, 2023).

Legend:
[1] = molecular target: T1, Alpha-2A adrenergic receptor (Homo sapiens, UniProt P08913); type: functional, cell-based
T1 sequence (P08913 whole entry): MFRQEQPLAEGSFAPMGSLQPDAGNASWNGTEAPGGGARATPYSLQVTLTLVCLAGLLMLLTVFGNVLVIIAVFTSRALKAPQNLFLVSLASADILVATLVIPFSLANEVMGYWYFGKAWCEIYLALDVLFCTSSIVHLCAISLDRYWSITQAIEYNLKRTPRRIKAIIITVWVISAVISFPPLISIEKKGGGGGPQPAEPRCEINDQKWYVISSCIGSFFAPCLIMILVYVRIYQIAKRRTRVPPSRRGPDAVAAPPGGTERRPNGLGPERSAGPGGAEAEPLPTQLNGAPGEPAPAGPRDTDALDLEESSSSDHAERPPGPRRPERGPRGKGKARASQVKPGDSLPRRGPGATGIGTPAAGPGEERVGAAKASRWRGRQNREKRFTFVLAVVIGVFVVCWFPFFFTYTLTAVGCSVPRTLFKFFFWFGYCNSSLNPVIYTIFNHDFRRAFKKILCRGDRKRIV

[2] = molecular target: T2, Cholecystokinin receptor type A (Homo sapiens, UniProt P32238)
T2 sequence (P32238 whole entry): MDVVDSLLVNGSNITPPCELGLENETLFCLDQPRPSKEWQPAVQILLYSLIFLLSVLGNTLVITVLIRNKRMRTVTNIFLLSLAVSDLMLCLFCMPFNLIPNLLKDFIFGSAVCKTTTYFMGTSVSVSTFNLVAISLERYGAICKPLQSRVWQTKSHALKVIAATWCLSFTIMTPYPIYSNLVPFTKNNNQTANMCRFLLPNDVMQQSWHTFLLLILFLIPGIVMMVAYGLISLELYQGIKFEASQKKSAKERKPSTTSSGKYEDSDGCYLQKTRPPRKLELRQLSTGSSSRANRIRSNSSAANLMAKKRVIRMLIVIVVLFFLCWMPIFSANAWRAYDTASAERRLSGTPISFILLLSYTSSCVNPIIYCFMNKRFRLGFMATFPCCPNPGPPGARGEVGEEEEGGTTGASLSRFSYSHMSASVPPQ

D(1A) dopamine receptor = D(1A) dopamine receptor (Homo sapiens, UniProt P21728); type: functional, cell-based
[3] = molecular target: 5-hydroxytryptamine receptor 2B (Homo sapiens, UniProt P41595); type: functional, cell-based
[4] = molecular target: T3, 5-hydroxytryptamine receptor 2C (Homo sapiens, UniProt P28335)
T3 sequence (P28335 whole entry): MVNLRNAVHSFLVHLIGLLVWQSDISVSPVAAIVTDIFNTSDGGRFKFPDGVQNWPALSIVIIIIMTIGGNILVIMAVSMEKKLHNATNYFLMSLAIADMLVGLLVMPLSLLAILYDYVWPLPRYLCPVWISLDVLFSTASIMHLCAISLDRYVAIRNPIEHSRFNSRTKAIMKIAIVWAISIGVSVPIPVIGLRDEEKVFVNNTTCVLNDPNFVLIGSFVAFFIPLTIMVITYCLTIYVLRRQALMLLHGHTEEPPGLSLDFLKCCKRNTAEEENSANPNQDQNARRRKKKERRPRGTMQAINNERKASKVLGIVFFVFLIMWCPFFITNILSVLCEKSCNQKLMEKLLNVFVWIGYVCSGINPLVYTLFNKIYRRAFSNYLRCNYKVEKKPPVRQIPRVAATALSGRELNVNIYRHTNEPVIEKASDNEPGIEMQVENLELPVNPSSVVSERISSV

[5] = molecular target: T4, 5-hydroxytryptamine receptor 3A (Homo sapiens, UniProt P46098); type: functional
T4 sequence (P46098 whole entry): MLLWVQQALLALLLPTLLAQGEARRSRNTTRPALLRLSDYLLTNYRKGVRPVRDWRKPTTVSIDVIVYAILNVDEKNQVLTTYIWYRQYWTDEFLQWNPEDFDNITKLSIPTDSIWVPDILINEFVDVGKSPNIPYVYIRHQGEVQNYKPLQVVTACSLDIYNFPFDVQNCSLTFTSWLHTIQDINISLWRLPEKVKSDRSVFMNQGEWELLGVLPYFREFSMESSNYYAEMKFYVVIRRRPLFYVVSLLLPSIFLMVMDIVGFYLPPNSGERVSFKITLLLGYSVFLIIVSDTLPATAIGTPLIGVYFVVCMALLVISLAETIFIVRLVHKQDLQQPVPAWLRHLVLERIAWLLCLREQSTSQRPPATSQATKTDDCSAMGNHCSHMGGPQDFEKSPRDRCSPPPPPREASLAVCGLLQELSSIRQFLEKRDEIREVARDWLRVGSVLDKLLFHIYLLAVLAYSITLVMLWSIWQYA

Melanocortin receptor 3 = Melanocortin receptor 3 (Homo sapiens, UniProt P41968)
Motilin receptor = Motilin receptor (Homo sapiens, UniProt O43193)
[6] = molecular target: 3',5'-cyclic-AMP phosphodiesterase 4D (Homo sapiens, UniProt Q08499); type: functional
[7] = molecular target: Sodium-dependent noradrenaline transporter (Homo sapiens, UniProt P23975)
[8] = molecular target: T5, Amine oxidase [flavin-containing] A (Homo sapiens, UniProt P21397); type: functional
T5 sequence (P21397 whole entry): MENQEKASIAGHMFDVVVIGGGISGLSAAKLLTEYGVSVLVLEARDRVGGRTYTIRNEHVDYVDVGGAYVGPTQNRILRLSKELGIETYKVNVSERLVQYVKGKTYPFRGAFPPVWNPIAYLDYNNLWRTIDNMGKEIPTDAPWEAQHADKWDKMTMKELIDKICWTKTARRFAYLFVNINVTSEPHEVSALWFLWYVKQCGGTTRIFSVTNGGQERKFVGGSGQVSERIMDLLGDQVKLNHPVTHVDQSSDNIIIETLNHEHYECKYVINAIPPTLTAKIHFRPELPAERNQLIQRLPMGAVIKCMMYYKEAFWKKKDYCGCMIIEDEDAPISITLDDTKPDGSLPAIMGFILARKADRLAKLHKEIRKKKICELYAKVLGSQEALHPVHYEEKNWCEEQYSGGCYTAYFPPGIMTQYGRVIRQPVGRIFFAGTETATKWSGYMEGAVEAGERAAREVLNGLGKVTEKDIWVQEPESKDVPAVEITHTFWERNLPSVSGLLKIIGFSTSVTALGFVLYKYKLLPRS

[9] = molecular target: cGMP-inhibited 3',5'-cyclic phosphodiesterase 3A (Homo sapiens, UniProt Q14432); type: functional
D(3) dopamine receptor = D(3) dopamine receptor (Homo sapiens, UniProt P35462)
Also: assay procedure not described here.

Sequence of cGMP-inhibited 3',5'-cyclic phosphodiesterase 3A (Q14432 whole entry): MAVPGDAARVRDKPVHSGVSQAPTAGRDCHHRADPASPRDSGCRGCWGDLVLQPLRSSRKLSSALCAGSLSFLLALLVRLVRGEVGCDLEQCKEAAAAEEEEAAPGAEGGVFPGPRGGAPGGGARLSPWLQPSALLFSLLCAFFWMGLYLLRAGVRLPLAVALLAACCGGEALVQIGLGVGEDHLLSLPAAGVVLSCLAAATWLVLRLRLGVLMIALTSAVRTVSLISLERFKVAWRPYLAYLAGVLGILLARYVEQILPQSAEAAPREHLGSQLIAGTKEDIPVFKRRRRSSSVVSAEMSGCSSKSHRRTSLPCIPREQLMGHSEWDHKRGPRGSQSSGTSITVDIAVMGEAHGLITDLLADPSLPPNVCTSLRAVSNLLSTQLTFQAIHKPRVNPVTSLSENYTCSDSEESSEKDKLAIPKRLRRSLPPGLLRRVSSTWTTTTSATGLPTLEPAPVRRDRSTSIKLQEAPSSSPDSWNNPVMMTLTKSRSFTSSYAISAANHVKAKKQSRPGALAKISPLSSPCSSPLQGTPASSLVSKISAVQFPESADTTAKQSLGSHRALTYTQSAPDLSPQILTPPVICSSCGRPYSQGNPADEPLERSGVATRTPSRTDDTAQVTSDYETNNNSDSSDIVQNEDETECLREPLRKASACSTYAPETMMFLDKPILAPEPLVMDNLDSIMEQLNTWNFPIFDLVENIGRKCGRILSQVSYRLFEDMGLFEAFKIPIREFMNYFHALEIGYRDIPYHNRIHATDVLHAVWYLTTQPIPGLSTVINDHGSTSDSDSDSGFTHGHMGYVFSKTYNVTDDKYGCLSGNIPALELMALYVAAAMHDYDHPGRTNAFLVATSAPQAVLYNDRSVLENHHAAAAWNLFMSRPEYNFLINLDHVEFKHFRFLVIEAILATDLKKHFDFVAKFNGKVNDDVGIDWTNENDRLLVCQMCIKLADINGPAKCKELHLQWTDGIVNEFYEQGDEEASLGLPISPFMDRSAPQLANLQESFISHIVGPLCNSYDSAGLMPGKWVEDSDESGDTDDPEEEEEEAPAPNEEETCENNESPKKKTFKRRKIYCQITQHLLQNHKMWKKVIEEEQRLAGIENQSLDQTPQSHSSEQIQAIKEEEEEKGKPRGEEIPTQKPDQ
Sequence of Sodium-dependent noradrenaline transporter (P23975 whole entry): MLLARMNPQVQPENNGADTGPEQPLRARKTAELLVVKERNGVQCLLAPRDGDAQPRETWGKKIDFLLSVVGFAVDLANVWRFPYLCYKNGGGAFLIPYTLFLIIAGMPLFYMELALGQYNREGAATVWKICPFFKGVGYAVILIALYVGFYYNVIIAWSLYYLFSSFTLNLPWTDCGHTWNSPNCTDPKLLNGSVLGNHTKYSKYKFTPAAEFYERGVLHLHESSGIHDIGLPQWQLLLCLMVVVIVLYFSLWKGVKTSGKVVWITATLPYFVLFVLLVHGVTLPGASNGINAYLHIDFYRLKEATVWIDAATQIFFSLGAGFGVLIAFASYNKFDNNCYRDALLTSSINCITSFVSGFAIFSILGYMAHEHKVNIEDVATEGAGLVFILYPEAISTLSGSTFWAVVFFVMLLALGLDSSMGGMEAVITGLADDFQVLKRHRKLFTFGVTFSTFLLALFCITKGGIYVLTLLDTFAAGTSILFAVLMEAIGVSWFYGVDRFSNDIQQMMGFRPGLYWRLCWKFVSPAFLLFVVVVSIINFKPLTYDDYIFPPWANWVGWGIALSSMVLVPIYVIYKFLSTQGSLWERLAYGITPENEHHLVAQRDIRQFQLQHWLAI
Sequence of Motilin receptor (O43193 whole entry): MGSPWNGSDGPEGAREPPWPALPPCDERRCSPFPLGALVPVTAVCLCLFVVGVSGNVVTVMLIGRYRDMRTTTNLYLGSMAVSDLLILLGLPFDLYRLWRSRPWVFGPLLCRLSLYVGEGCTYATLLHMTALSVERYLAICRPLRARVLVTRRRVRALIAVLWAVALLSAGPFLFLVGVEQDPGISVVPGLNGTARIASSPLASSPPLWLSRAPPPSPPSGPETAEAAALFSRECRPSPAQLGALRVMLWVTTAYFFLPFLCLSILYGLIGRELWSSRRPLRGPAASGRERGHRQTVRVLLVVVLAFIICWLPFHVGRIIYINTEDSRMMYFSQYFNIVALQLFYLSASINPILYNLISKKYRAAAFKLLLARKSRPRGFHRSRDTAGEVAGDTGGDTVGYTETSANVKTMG
Sequence of D(3) dopamine receptor (P35462 whole entry): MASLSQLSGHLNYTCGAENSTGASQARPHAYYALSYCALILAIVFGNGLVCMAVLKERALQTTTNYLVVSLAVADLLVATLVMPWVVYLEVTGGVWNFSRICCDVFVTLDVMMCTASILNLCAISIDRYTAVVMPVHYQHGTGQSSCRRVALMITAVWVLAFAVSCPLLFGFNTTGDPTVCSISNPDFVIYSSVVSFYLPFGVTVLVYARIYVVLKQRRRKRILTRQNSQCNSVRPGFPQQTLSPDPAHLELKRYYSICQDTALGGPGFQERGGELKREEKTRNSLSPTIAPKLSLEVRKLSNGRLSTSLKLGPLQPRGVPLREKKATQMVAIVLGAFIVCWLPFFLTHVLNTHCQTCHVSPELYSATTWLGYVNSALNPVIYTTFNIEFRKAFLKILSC
Sequence of D(1A) dopamine receptor (P21728 whole entry): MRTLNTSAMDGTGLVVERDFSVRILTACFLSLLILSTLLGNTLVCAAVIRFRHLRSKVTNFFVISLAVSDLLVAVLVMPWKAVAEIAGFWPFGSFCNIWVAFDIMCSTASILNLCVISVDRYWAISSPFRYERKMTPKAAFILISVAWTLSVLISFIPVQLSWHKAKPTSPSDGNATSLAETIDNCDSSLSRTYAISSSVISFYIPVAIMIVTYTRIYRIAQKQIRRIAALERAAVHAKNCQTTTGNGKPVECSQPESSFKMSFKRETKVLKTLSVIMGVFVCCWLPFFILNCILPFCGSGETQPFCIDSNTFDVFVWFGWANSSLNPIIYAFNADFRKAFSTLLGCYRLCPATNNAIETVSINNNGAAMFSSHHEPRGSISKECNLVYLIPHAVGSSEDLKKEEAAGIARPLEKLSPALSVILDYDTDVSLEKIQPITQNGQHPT
Sequence of 3',5'-cyclic-AMP phosphodiesterase 4D (Q08499 whole entry): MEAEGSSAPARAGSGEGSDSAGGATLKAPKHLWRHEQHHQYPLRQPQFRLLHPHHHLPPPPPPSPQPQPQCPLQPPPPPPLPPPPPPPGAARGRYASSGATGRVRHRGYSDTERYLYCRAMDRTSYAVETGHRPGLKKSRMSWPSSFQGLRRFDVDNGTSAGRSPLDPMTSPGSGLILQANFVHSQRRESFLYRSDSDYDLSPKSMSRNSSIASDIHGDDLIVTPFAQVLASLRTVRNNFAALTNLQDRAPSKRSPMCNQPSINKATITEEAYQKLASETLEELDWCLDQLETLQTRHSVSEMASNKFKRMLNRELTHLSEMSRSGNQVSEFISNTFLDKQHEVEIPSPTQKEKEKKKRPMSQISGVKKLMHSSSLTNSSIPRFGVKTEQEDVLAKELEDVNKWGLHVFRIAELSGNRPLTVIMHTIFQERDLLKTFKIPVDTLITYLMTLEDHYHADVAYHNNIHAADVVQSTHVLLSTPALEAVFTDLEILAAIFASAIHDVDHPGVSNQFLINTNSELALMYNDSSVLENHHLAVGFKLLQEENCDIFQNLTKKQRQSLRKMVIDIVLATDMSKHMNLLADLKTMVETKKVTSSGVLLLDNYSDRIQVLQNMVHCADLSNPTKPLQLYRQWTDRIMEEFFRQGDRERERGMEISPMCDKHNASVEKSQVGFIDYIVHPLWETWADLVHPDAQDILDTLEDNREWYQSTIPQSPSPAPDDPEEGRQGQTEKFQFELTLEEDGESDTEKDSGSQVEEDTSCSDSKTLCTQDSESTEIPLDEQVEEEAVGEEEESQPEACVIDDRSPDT
Sequence of 5-hydroxytryptamine receptor 2B (P41595 whole entry): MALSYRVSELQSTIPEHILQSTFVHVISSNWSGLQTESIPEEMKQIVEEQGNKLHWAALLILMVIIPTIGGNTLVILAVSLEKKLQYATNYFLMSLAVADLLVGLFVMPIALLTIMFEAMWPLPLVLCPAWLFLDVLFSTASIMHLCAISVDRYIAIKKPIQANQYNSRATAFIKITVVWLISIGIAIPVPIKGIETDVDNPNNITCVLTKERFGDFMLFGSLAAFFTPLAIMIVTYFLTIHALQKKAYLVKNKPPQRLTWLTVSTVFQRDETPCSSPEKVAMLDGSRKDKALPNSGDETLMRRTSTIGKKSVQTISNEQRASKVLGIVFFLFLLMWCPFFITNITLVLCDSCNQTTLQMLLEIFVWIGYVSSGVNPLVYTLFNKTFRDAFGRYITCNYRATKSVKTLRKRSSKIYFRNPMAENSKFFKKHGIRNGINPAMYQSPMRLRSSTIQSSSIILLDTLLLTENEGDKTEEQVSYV
Sequence of Melanocortin receptor 3 (P41968 whole entry): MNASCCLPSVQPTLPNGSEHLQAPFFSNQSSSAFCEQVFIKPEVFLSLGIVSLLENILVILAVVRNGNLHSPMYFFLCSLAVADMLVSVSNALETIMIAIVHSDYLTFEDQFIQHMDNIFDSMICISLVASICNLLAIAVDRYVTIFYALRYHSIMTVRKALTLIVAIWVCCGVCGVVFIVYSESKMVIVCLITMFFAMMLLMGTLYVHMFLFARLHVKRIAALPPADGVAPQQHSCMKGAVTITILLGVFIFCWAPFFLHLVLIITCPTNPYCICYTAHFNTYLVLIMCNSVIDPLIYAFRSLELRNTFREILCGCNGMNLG

## CC[C@H](C)C(=O)O[C@H]1C[C@H](O)C=C2C=C[C@H](C)[C@H](CC[C@@H](O)C[C@@H](O)CC(=O)O)[C@H]21 [PRAVASTATIN]
[1]
  AC50: > 30 µM
[2]
  AC50: > 30 µM
D(1A) dopamine receptor
  AC50: > 30 µM
[3]
  AC50: > 30 µM
[4]
  AC50: > 30 µM
[5]
  AC50: > 30 µM
Melanocortin receptor 3
  AC50: > 30 µM
Motilin receptor
  AC50: > 30 µM
[6]
  AC50: > 30 µM
[7]
  AC50: > 30 µM
[8]
  AC50: > 30 µM
[9]
  AC50: > 30 µM
D(3) dopamine receptor
  AC50: > 30 µM

## NC(=O)c1cnccn1 [PYRAZINAMIDE]
[1]
  AC50: > 30 µM
[2]
  AC50: > 30 µM
D(1A) dopamine receptor
  AC50: > 30 µM
[3]
  AC50: > 30 µM
[4]
  AC50: > 30 µM
[5]
  AC50: > 30 µM
Melanocortin receptor 3
  AC50: 12.6 µM
Motilin receptor
  AC50: > 30 µM
[6]
  AC50: > 30 µM
[7]
  AC50: > 30 µM
[8]
  AC50: > 30 µM
[9]
  AC50: > 30 µM
D(3) dopamine receptor
  AC50: > 30 µM

## CC(C(=O)O)c1ccc(C(=O)c2cccs2)cc1 (configuration not stated) [SUPROFEN]
[1]
  AC50: > 10 µM
[2]
  AC50: > 10 µM
D(1A) dopamine receptor
  AC50: > 10 µM
[3]
  AC50: > 10 µM
[4]
  AC50: > 30 µM
[5]
  AC50: > 30 µM
Melanocortin receptor 3
  AC50: > 10 µM
Motilin receptor
  AC50: > 10 µM
[6]
  AC50: > 30 µM
[7]
  AC50: > 10 µM
[8]
  AC50: > 10 µM
[9]
  AC50: > 30 µM
D(3) dopamine receptor
  AC50: > 30 µM

## CS(=O)(=O)c1ccc([C@@H](O)[C@@H](CO)NC(=O)C(Cl)Cl)cc1 [THIAMPHENICOL]
[1]
  AC50: > 30 µM
[2]
  AC50: > 30 µM
D(1A) dopamine receptor
  AC50: > 30 µM
[3]
  AC50: > 30 µM
[4]
  AC50: > 30 µM
[5]
  AC50: > 30 µM
Melanocortin receptor 3
  AC50: > 30 µM
Motilin receptor
  AC50: > 30 µM
[6]
  AC50: > 30 µM
[7]
  AC50: > 30 µM
[8]
  AC50: > 30 µM
[9]
  AC50: > 30 µM
D(3) dopamine receptor
  AC50: > 30 µM

## Cc1ccc(C(=O)c2cc(O)c(O)c([N+](=O)[O-])c2)cc1 [TOLCAPONE]
[1]
  AC50: > 10 µM
[2]
  AC50: > 10 µM
D(1A) dopamine receptor
  AC50: > 10 µM
[3]
  AC50: > 10 µM
[4]
  AC50: > 10 µM
[5]
  AC50: > 10 µM
Melanocortin receptor 3
  AC50: > 10 µM
Motilin receptor
  AC50: > 10 µM
[6]
  AC50: > 30 µM
[7]
  AC50: 12.9 µM
[8]
  AC50: > 10 µM
[9]
  AC50: 18 µM
D(3) dopamine receptor
  AC50: > 30 µM

## NC[C@H]1CC[C@H](C(=O)O)CC1 [TRANEXAMIC ACID]
[1]
  AC50: > 10 µM
[2]
  AC50: > 10 µM
D(1A) dopamine receptor
  AC50: > 30 µM
[3]
  AC50: > 10 µM
[4]
  AC50: > 30 µM
[5]
  AC50: > 30 µM
Melanocortin receptor 3
  AC50: > 10 µM
Motilin receptor
  AC50: > 10 µM
[6]
  AC50: > 30 µM
[7]
  AC50: > 10 µM
[8]
  AC50: > 10 µM
[9]
  AC50: > 30 µM
D(3) dopamine receptor
  AC50: > 30 µM

## CCCS(=O)(=O)Nc1ccc(F)c(C(=O)c2c[nH]c3ncc(-c4ccc(Cl)cc4)cc23)c1F [VEMURAFENIB]
[1]
  AC50: > 30 µM
[2]
  AC50: > 30 µM
D(1A) dopamine receptor
  AC50: > 30 µM
[3]
  AC50: > 30 µM
[4]
  AC50: > 30 µM
[5]
  AC50: > 30 µM
Melanocortin receptor 3
  AC50: > 30 µM
Motilin receptor
  AC50: > 30 µM
[6]
  AC50: > 30 µM
[7]
  AC50: > 30 µM
[8]
  AC50: > 30 µM
[9]
  AC50: > 30 µM
D(3) dopamine receptor
  AC50: > 30 µM

## OCc1cc([C@@H](O)CNCCCCCCOCCOCc2c(Cl)cccc2Cl)ccc1O [VILANTEROL]
[1]
  AC50: > 30 µM
[2]
  AC50: > 30 µM
D(1A) dopamine receptor
  AC50: 2.2 µM
[3]
  AC50: > 30 µM
[4]
  AC50: > 30 µM
[5]
  AC50: > 30 µM
Melanocortin receptor 3
  AC50: 26 µM
Motilin receptor
  AC50: 14 µM
[6]
  AC50: 18 µM
[7]
  AC50: 23 µM
[8]
  AC50: > 30 µM
[9]
  AC50: > 30 µM
D(3) dopamine receptor
  AC50: > 30 µM

## O=C(CCCCCCC(=O)Nc1ccccc1)NO [VORINOSTAT]
[1]
  AC50: > 30 µM
[2]
  AC50: > 30 µM
D(1A) dopamine receptor
  AC50: > 30 µM
[3]
  AC50: > 30 µM
[4]
  AC50: > 30 µM
[5]
  AC50: > 30 µM
Melanocortin receptor 3
  AC50: > 30 µM
Motilin receptor
  AC50: > 30 µM
[6]
  AC50: > 30 µM
[7]
  AC50: > 30 µM
[8]
  AC50: > 30 µM
[9]
  AC50: > 30 µM
D(3) dopamine receptor
  AC50: > 30 µM
